Values joined by “and” are separate entries in the source; they are usually repeats but may differ in a detail not shown here. Identical values can stand only once.
Experiments:
[1] = test system: CCl4 induced hepatic injury; experiment: Hepatoprotective potential against CCl4 induced hepatic injury in rodents (prophylactic); type: in vivo, Rodents (Albino rats, Wistar; Albino mice, Swiss); conditions: for % protection, GSH / % protection, LP / GSH (glutathione) / LP (lipid peroxidation): hepatic; for GSH (glutathione) / LP (lipid peroxidation) / ALP / Albumin / Bilirubin / GOT / GPT / TG: mean ± SE, six animals; for % protection, ALP / % protection, Albumin / % protection, Bilirubin / % protection, GOT / % protection, GPT / % protection, TG / ALP / Albumin / Bilirubin / GOT / GPT / TG: serum
Description: The compound has been bioevaluated for hepatoprotective/antihepatotoxic activity by using a comprehensive study design annexed herewith as Annexure-2. The parameters studied during the bioevaluation to establish the bioefficacy and optimum dose were preferred using the kits (Clonital, Italy and Accurex Biomedical Pvt. Ltd Thane). The list of the parameters is given in Annexure-2 appended herewith. The dose response graphs with respect to different parameters in comparison with the standard drug with silymarin and glycyrrhizin are given in Annexure-3 appended herewith.
Hepatoprotective activity (H) was calculated by the following equation: H=[1−(TC−V/VC−V)]×100
Where TC, VC, and V are drug+toxin, vehicle+toxin and vehicle treated groups of animals respectively.

[2] = Effect on BP and respiration, I.V. in rat; type: in vivo; conditions: 30 μg, 100 μg, 300 μg and 1 mg I.V. in rat
[3] = Acteoside only (per-se), serum and hepatic parameters without toxin; type: in vivo, Rodents; conditions: 5 mg/kg, mean ± SE, six animals
[4] = test system: isolated rat colon; experiment: Histamine, 5-HT and Acetylcholine induced contraction on the isolated rat colon

C[C@@H]1O[C@@H](O[C@@H]2[C@@H](O)[C@H](OCCc3ccc(O)c(O)c3)O[C@H](CO)[C@H]2OC(=O)/C=C/c2ccc(O)c(O)c2)[C@H](O)[C@H](O)[C@H]1O [Acteoside, β-(3′,4′-dihydroxyphenyl) ethyl —O-α-L-rhamnopyranosyl (1→3)-β-D-(4-O-caffeoyl)-glucopyranoside]
% protection, GSH ([1]; 0.625 mg/kg p.o. + CCl4): (27.86) %
% protection, LP ([1]; 0.625 mg/kg p.o. + CCl4): (43.53) %
GSH (glutathione) ([1]; 0.625 mg/kg p.o. + CCl4): 4.66 ± 0.28 μ mole GSH/g liver
LP (lipid peroxidation) ([1]; 0.625 mg/kg p.o. + CCl4): 61.08 ± 3.39 n mole MDA/g liver
% protection, ALP ([1]; 0.625 mg/kg p.o. + CCl4): (21.48) %
% protection, Albumin ([1]; 0.625 mg/kg p.o. + CCl4): (21.43) %
% protection, Bilirubin ([1]; 0.625 mg/kg p.o. + CCl4): (12.24) %
% protection, GOT ([1]; 0.625 mg/kg p.o. + CCl4): (36.64) %
% protection, GPT ([1]; 0.625 mg/kg p.o. + CCl4): (39.44) %
% protection, TG ([1]; 0.625 mg/kg p.o. + CCl4): (17.63) %
ALP ([1]; 0.625 mg/kg p.o. + CCl4): 66.80 ± 3.53 μ mole of p-nitrophenol formed/min/L
Albumin ([1]; 0.625 mg/kg p.o. + CCl4): 3.06 ± 0.07 g %
Bilirubin ([1]; 0.625 mg/kg p.o. + CCl4): 0.70 ± 0.03 mg %
GOT ([1]; 0.625 mg/kg p.o. + CCl4): 673.82 ± 56.28 Units (μ mole pyruvate/min/L)
GPT ([1]; 0.625 mg/kg p.o. + CCl4): 852.27 ± 47.93 Units (μ mole pyruvate/min/L)
TG ([1]; 0.625 mg/kg p.o. + CCl4): 80.15 ± 3.53 mg %
overall percent protection with reference to all the parameters studied ([1]; 1.25 mg upto 5 mg/kg, CCl4): 40-85% and 40-80%
% protection, GSH ([1]; 1.25 mg/kg p.o. + CCl4): (52.96) %
% protection, LP ([1]; 1.25 mg/kg p.o. + CCl4): (59.38) %
GSH (glutathione) ([1]; 1.25 mg/kg p.o. + CCl4): 5.93 ± 0.32 μ mole GSH/g liver
LP (lipid peroxidation) ([1]; 1.25 mg/kg p.o. + CCl4): 52.61 ± 2.25 n mole MDA/g liver
% protection, ALP ([1]; 1.25 mg/kg p.o. + CCl4): (38.72) %
% protection, Albumin ([1]; 1.25 mg/kg p.o. + CCl4): (35.00) %
% protection, Bilirubin ([1]; 1.25 mg/kg p.o. + CCl4): (34.69) %
% protection, GOT ([1]; 1.25 mg/kg p.o. + CCl4): (55.43) %
% protection, GPT ([1]; 1.25 mg/kg p.o. + CCl4): (51.01) %
% protection, TG ([1]; 1.25 mg/kg p.o. + CCl4): (27.13) %
ALP ([1]; 1.25 mg/kg p.o. + CCl4): 59.10 ± 3.09 μ mole of p-nitrophenol formed/min/L
Albumin ([1]; 1.25 mg/kg p.o. + CCl4): 3.25 ± 0.14 g %
Bilirubin ([1]; 1.25 mg/kg p.o. + CCl4): 0.59 ± 0.03 mg %
GOT ([1]; 1.25 mg/kg p.o. + CCl4): 503.42 ± 48.95 Units (μ mole pyruvate/min/L)
GPT ([1]; 1.25 mg/kg p.o. + CCl4): 787.56 ± 57.49 Units (μ mole pyruvate/min/L)
TG ([1]; 1.25 mg/kg p.o. + CCl4): 74.38 ± 3.78 mg %
% protection, GSH ([1]; 2.5 mg/kg p.o. + CCl4): (68.57) %
% protection, LP ([1]; 2.5 mg/kg p.o. + CCl4): (72.76) %
GSH (glutathione) ([1]; 2.5 mg/kg p.o. + CCl4): 6.72 ± 0.28 μ mole GSH/g liver
LP (lipid peroxidation) ([1]; 2.5 mg/kg p.o. + CCl4): 45.46 ± 2.79 n mole MDA/g liver
% protection, ALP ([1]; 2.5 mg/kg p.o. + CCl4): (56.40) %
% protection, Albumin ([1]; 2.5 mg/kg p.o. + CCl4): (56.43) %
% protection, Bilirubin ([1]; 2.5 mg/kg p.o. + CCl4): (53.06) %
% protection, GOT ([1]; 2.5 mg/kg p.o. + CCl4): (58.92) %
% protection, GPT ([1]; 2.5 mg/kg p.o. + CCl4): (59.79) %
% protection, TG ([1]; 2.5 mg/kg p.o. + CCl4): (51.06) %
ALP ([1]; 2.5 mg/kg p.o. + CCl4): 51.20 ± 1.42 μ mole of p-nitrophenol formed/min/L
Albumin ([1]; 2.5 mg/kg p.o. + CCl4): 3.55 ± 0.22 g %
Bilirubin ([1]; 2.5 mg/kg p.o. + CCl4): 0.50 ± 0.03 mg %
GOT ([1]; 2.5 mg/kg p.o. + CCl4): 471.81 ± 26.40 Units (μ mole pyruvate/min/L)
GPT ([1]; 2.5 mg/kg p.o. + CCl4): 662.62 ± 39.80 Units (μ mole pyruvate/min/L)
TG ([1]; 2.5 mg/kg p.o. + CCl4): 59.85 ± 1.88 mg %
% protection, GSH ([1]; 5.0 mg/kg p.o. + CCl4): (74.50) %
% protection, LP ([1]; 5.0 mg/kg p.o. + CCl4): (75.07) %
GSH (glutathione) ([1]; 5.0 mg/kg p.o. + CCl4): 7.02 ± 0.46 μ mole GSH/g liver
LP (lipid peroxidation) ([1]; 5.0 mg/kg p.o. + CCl4): 44.22 ± 1.66 n mole MDA/g liver
% protection, ALP ([1]; 5.0 mg/kg p.o. + CCl4): (67.21) %
% protection, Albumin ([1]; 5.0 mg/kg p.o. + CCl4): (82.14) %
% protection, Bilirubin ([1]; 5.0 mg/kg p.o. + CCl4): (69.38) %
% protection, GOT ([1]; 5.0 mg/kg p.o. + CCl4): (70.49) %
% protection, GPT ([1]; 5.0 mg/kg p.o. + CCl4): (66.08) %
% protection, TG ([1]; 5.0 mg/kg p.o. + CCl4): (68.42) %
ALP ([1]; 5.0 mg/kg p.o. + CCl4): 46.37 ± 1.89 μ mole of p-nitrophenol formed/min/L
Albumin ([1]; 5.0 mg/kg p.o. + CCl4): 3.91 ± 0.12 g %
Bilirubin ([1]; 5.0 mg/kg p.o. + CCl4): 0.42 ± 0.02 mg %
GOT ([1]; 5.0 mg/kg p.o. + CCl4): 366.89 ± 26.97 Units (μ mole pyruvate/min/L)
GPT ([1]; 5.0 mg/kg p.o. + CCl4): 573.10 ± 28.25 Units (μ mole pyruvate/min/L)
TG ([1]; 5.0 mg/kg p.o. + CCl4): 49.31 ± 1.47 mg %
overall protection compared with silymarin ([1]; silymarin at 10-20 times the dosage of acteoside): better than that rendered by silymarin
effect on BP [2]: O: There is no effect on BP and Respiration in the doses of 30 μg, 100 μg, 300 μg and 1 mg I.V. in rat as there is no change in base line.
effect on Respiration [2]: O: There is no effect on BP and Respiration in the doses of 30 μg, 100 μg, 300 μg and 1 mg I.V. in rat as there is no change in base line.
GSH (glutathione) ([3]; no CCl4, hepatic): 8.33 ± 0.33 μ mole GSH/g liver
LP (lipid peroxidation) ([3]; no CCl4, hepatic): 30.52 ± 1.38 n mole MDA/g liver
ALP ([3]; no CCl4, serum): 31.87 ± 2.15 μ mole of p-nitrophenol formed/min/L
Albumin ([3]; no CCl4, serum): 4.66 ± 0.18 g %
Bilirubin ([3]; no CCl4, serum): 0.27 ± 0.02 mg %
GOT ([3]; no CCl4, serum): 94.71 ± 5.29 Units (μ mole pyruvate/min/L)
GPT ([3]; no CCl4, serum): 98.91 ± 5.30 Units (μ mole pyruvate/min/L)
TG ([3]; no CCl4, serum): 31.10 ± 2.39 mg %
effect on 5-HT induced contraction [4]: O: There is no change in the base line against the Histamine, 5-HT and Acetylcholine induced contraction on the isolated rat colon.
effect on Acetylcholine induced contraction [4]: O: There is no change in the base line against the Histamine, 5-HT and Acetylcholine induced contraction on the isolated rat colon.
effect on Histamine induced contraction [4]: O: There is no change in the base line against the Histamine, 5-HT and Acetylcholine induced contraction on the isolated rat colon.

CC1(C)[C@@H](O[C@H]2O[C@H](C(=O)O)[C@@H](O)[C@H](O)[C@H]2O[C@@H]2O[C@H](C(=O)O)[C@@H](O)[C@H](O)[C@H]2O)CC[C@]2(C)[C@H]3C(=O)C=C4[C@@H]5C[C@@](C)(C(=O)O)CC[C@]5(C)CC[C@@]4(C)[C@]3(C)CC[C@@H]12 [Glycyrrhizin, reference compound]
% protection, GSH ([1]; 100 mg/kg p.o. + CCl4): (53.55) %
% protection, LP ([1]; 100 mg/kg p.o. + CCl4): (56.08) %
GSH (glutathione) ([1]; 100 mg/kg p.o. + CCl4): 5.96 ± 0.26 μ mole GSH/g liver
LP (lipid peroxidation) ([1]; 100 mg/kg p.o. + CCl4): 54.37 ± 4.82 n mole MDA/g liver
% protection, ALP ([1]; 100 mg/kg p.o. + CCl4): (46.48) %
% protection, Albumin ([1]; 100 mg/kg p.o. + CCl4): (38.57) %
% protection, Bilirubin ([1]; 100 mg/kg p.o. + CCl4): (42.85) %
% protection, GOT ([1]; 100 mg/kg p.o. + CCl4): (56.44) %
% protection, GPT ([1]; 100 mg/kg p.o. + CCl4): (53.87) %
% protection, TG ([1]; 100 mg/kg p.o. + CCl4): (42.07) %
ALP ([1]; 100 mg/kg p.o. + CCl4): 55.63 ± 3.52 μ mole of p-nitrophenol formed/min/L
Albumin ([1]; 100 mg/kg p.o. + CCl4): 3.30 ± 0.12 g %
Bilirubin ([1]; 100 mg/kg p.o. + CCl4): 0.55 ± 0.04 mg %
GOT ([1]; 100 mg/kg p.o. + CCl4): 494.27 ± 36.28 Units (μ mole pyruvate/min/L)
GPT ([1]; 100 mg/kg p.o. + CCl4): 746.87 ± 49.77 Units (μ mole pyruvate/min/L)
TG ([1]; 100 mg/kg p.o. + CCl4): 65.31 ± 3.69 mg %

From patent publication US6989162B2, “Hepatoprotective agent of plant origin and a process thereof” (Council of Scientific & Industrial Research, priority 2003, dated 2006)
